Three molecules from PMC8634379, “From the Design to the In Vivo Evaluation of Benzohomoadamantane-Derived Soluble Epoxide Hydrolase Inhibitors for the Treatment of Acute Pancreatitis” (Journal of Medicinal Chemistry, 2021) can be followed below.

Data set [1] is described as follows: Microsomal stability. Conditions: after 60 min incubation, NADP, 37 °C. As for the experimental part:
(§1) The human, rat, and mice recombinant microsomes employed were purchased from Tebu–Xenotech. […] Samples (75 μL) were taken from each well at 0, 10, 20, 40, and 60 min and transferred to a plate containing 4 °C 75 μL of acetonitrile and 30 μL of 0.5% formic acid in water were added for improving the chromatographic conditions. The plate was centrifuged ([…], 30 min) and supernatants were taken and analyzed by an ultraperformance liquid chromatograph–tandem mass spectrometer (Xevo-TQD, Waters) by employing a BEH C18 column and an isocratic gradient of 0.1% formic acid in water: 0.1% formic acid acetonitrile (60:40). The metabolic stability of the compounds was calculated from the logarithm of the remaining compounds at each of the time points studied.

A further data set concerns the target T1, human LOX-5 (hLOX-5) (Homo sapiens, UniProt P09917).
T1 construct: purchased Cayman Chemical
T1 sequence (P09917 1-674): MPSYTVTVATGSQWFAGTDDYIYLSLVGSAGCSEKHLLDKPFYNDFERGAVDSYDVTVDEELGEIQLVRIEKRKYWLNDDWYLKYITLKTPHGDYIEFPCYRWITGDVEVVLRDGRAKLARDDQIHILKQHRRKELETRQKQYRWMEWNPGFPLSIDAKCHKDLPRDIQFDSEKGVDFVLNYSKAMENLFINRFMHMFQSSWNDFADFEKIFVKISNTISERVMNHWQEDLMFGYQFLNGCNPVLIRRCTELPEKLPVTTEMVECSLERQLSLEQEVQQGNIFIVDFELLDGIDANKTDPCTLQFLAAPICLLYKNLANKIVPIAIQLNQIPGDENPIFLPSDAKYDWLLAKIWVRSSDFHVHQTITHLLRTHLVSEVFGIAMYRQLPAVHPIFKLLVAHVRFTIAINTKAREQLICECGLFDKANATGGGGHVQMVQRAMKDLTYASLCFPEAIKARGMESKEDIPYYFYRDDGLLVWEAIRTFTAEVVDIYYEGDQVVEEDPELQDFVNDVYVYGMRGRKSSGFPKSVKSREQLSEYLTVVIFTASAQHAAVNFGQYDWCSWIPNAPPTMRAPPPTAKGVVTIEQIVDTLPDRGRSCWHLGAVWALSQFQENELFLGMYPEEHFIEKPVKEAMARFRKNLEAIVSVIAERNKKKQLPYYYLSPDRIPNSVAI
The data set is described as follows: Inhibition of hLOX-5. Format: biochemical. As for the experimental part: AA and 2′,7′-dichlorodihydrofluorescein diacetate (H2DCFDA) were obtained from Sigma. Human recombinant LOX-5 was purchased from Cayman Chemical. For the determination of hLOX-5 activity, the method described by Pufahl et al. was followed.[51] The assay solution consisted of 50 mM Tris (pH 7.5), 2 mM EDTA, 2 mM CaCl2, 3 μM AA, 10 μM ATP, 10 μM H2DCFDA, and 100 mU/well hLOX-5. For the enzyme inhibition studies, the compounds to be tested were added to the assay solution prior to AA and ATP and were preincubated for a period of 10 min at room temperature, after which AA and ATP were added. The enzymatic reaction was carried out for 20 min and terminated by the addition of 40 μL of acetonitrile.

The nature of another data set: Caco-2 cell permeability. Format: in vitro ADME. Conditions: human; for Papp A→B at 2 h, 10 µM / Papp B→A at 2 h, 10 µM: 37 °C; for efflux ratio at 2 h, 10 µM: ER = (Papp B→A)/(Papp A→B). As for the experimental part: The Caco-2 cells were cultured to confluency, trypsinized, and seeded onto a 96-filter transwell insert (Corning) at a density of ∼10,000 cells/well in DMEM cell culture medium supplemented with 10% fetal bovine serum, 2 mM L-glutamine, and 1% penicillin/streptomycin. Confluent Caco-2 cells were subcultured at passages 58–62 and grown in a humidified atmosphere of 5% CO2 at 37 °C. […] The cell monolayers were used for transport studies 21 days post seeding. […] Stock solutions were made in dimethyl sulfoxide (DMSO) and further diluted in HBSS (final DMSO concentration 1%). Each compound and reference compounds (Colchicine, E3S) were all tested at a final concentration of 10 μM. For A → B directional transport, the donor working solution was added to the apical (A) compartment and the transport media as receiver working solution was added to the basolateral (B) compartment. For B → A directional transport, the donor working was added to the basolateral (B) compartment and transport media as receiver working solution was added to the apical (A) compartment. The cells were incubated at 37 °C for 2 h with gentle stirring.
At the end of the incubation, samples were taken from both donor and receiver compartments and transferred into 384-well plates and analyzed by ultraperformance liquid chromatography–tandem mass spectrometry (UPLC–MS/MS). The detection was performed using an ACQUITY UPLC/Xevo TQD System.
Background: Passage across Caco-2 layers is used to estimate intestinal permeability.

The nature of data set [2]: Microsomal stability. Format: in vitro ADME, mice. The note with it: after 60 min incubation, NADP, 37 °C. On the procedure:
as §1

For a further data set, the system named is SH-SY5Y cells. The data set is described as follows: Cytotoxicity by propidium iodide staining. Format: cell-based. The note with it: 100 μM, 24 h. As for the experimental part:
Cytotoxicity was evaluated in the human neuroblastoma SH-SY5Y cell line (ATCC number: CRL-2266). Cells were cultured in minimum essential medium/Ham’s-F12 (1:1, v/v) medium, supplemented with non-essential amino acids, 10% fetal bovine serum, 1 mM glutamine, and 50 μg/mL gentamycin (all reagents from Gibco, Invitrogen). For experiments, the cells were seeded at 3 × 10^5 cells/mL (100 μL/well) in 96-well plates (Nunc). After 24 h, the testing compounds were added concentrated to triplicate wells to obtain the final different concentrations up to 100 μM. Compounds were incubated for further 24 h. At termination, cytotoxicity was analyzed by the propidium iodide (PI) fluorescence stain assay. All compounds were tested in three independent experiments using different cell passages. The PI assay measures cell death. […]. The percentage of cell death induced by the treatments was calculated from the fluorescence of treated cells (Ft) relative to that of control cells (Fmin) and cells incubated with Triton X100 (Fmax) as the 0 and 100% cell death, respectively [% = ((Ft – Fmin)/(Fmax – Fmin)) × 100].

As usually defined, the IC50 is the concentration that inhibits the measured activity by half. The low end stands for higher potency, the high end for lower potency. Broadly, the Papp A→B is the apparent permeability from the apical to the basolateral side of a cell layer. A low value points to poor permeation. As usually defined, the Papp B→A is how fast a substance crosses the layer from the basolateral side. The efflux ratio is a quotient of directional permeabilities that is used to spot active efflux. Turning to `CC12CC3CC(NC(=O)N[C@H]4CC[C@H](Oc5ccc(C(=O)O)cc5)CC4)(CC(C1)c1ccccc13)C2` [Compound 20, 4-[((1r,4r)-4-(3-(9-Methyl-5,6,8,9,10,11-Hexahydro-7H-5,9:7,11-dimethanobenzo[9]annulen-7-yl)ureido)cyclohexyl)oxy]benzoic Acid], in “Microsomal stability [1]”, the “microsomal stability, percentage of remaining compound (rat)” value stood at 2%. Besides, on human LOX-5 (hLOX-5), the IC50 was over 100 µM; the “inhibition of hLOX-5 (selectivity)” value is “Neither 20 nor the halogenated analogues 22 and 23 significantly inhibited”. Besides, in “Caco-2 cell permeability”, the Papp A→B at 2 h, 10 µM came out at 1 ×10⁻⁶ cm/s; the Papp B→A at 2 h, 10 µM is 12.4 ×10⁻⁶ cm/s; the efflux ratio at 2 h, 10 µM came to 12.4. The “microsomal stability, percentage of remaining compound (mice)” value in “Microsomal stability [2]” amounted to 10%. In the data set on SH-SY5Y cells, the “cytotoxicity at the highest concentration tested” value (“cytotoxicity” for short) is recorded as “None of the compounds showed to be cytotoxic”.

As to `O=C(NC12CC3CC(Cl)(CC(C1)c1ccccc13)C2)N[C@H]1CC[C@H](Oc2ccc(C(=O)O)cc2)CC1` [Compound 22, 4-[((1r,4r)-4-(3-(9-Chloro-5,6,8,9,10,11-hexahydro-7H-5,9:7,11-dimethanobenzo[9]annulen-7-yl)ureido)cyclohexyl)oxy]benzoic Acid], in “Microsomal stability [1]”, the “microsomal stability, percentage of remaining compound (rat)” value is listed as 52%. This molecule yielded an IC50 at human LOX-5 (hLOX-5) of over 100 µM. In the data set “Caco-2 cell permeability”, this molecule returned a Papp A→B at 2 h, 10 µM of 2.15 ×10⁻⁶ cm/s and a Papp B→A at 2 h, 10 µM of 4.66 ×10⁻⁶ cm/s. Moreover, the “microsomal stability, percentage of remaining compound (mice)” value in the data set “Microsomal stability [2]” stood at 29%. In addition, the “cytotoxicity” value with SH-SY5Y cells is “None of the compounds showed to be cytotoxic”.

On to `O=C(NC12CC3CC(F)(CC(C1)c1ccccc13)C2)N[C@H]1CC[C@H](Oc2ccc(C(=O)O)cc2)CC1` [Compound 23, 4-[((1r,4r)-4-(3-(9-Fluoro-5,6,8,9,10,11-hexahydro-7H-5,9:7,11-dimethanobenzo[9]annulen-7-yl)ureido)cyclohexyl)oxy]benzoic Acid], for which the “microsomal stability, percentage of remaining compound (rat)” value in “Microsomal stability [1]” is given as 60%. On human LOX-5 (hLOX-5), the half-inhibitory concentration (IC50) is over 100 µM; the “inhibition of hLOX-5 (selectivity)” value was “Neither 20 nor the halogenated analogues 22 and 23 significantly inhibited”. Moreover, in “Caco-2 cell permeability”, the apparent permeability from apical to basolateral (Papp A→B) at 2 h, 10 µM was 0.09 ×10⁻⁶ cm/s; the Papp B→A at 2 h, 10 µM stood at 21.9 ×10⁻⁶ cm/s; the efflux ratio at 2 h, 10 µM was 244. In addition, the “microsomal stability, percentage of remaining compound (mice)” value in “Microsomal stability [2]” amounted to 36%. In addition, the “cytotoxicity” value in the data set with SH-SY5Y cells was “None of the compounds showed to be cytotoxic”.
